Here are results for 31 compounds from patent publication US11021481B2, “Substituted isoindolin-1-ones and 2,3-dihydro-1h-pyrrolo[3,4-c]pyridin-1-ones as HPK1 antagonists” (Nimbus Saturn, Inc., priority 2019, dated 2021).

By IC50 is commonly meant the concentration at which inhibition is half-maximal.

SMILES strings stand for the structures. Counter-ions that a name gives are not always drawn.

The target of this assay is HPK1 (Homo sapiens (Human), UniProt Q92918). The assay is described as follows: HPK1 biochemical enzyme assay (microfluidic mobility shift assay). Particulars: 1.5 nM HPK1, ATP 1 mM final, 30 min preincubation, 60 min at RT, Caliper EZ Reader; read-out: HPK1 1000UMATP caliper IC50. In short, it runs like this: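 Ten-point compound titrations (top 3 μM final) preincubated 30 min with HPK1 and substrate, then reaction started with 1 mM ATP and 1 μM substrate, 5 mM MgCl2. After 60 min at RT, reaction terminated and product measured by microfluidic mobility shift.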
Chain of HPK1 (Q92918 whole entry): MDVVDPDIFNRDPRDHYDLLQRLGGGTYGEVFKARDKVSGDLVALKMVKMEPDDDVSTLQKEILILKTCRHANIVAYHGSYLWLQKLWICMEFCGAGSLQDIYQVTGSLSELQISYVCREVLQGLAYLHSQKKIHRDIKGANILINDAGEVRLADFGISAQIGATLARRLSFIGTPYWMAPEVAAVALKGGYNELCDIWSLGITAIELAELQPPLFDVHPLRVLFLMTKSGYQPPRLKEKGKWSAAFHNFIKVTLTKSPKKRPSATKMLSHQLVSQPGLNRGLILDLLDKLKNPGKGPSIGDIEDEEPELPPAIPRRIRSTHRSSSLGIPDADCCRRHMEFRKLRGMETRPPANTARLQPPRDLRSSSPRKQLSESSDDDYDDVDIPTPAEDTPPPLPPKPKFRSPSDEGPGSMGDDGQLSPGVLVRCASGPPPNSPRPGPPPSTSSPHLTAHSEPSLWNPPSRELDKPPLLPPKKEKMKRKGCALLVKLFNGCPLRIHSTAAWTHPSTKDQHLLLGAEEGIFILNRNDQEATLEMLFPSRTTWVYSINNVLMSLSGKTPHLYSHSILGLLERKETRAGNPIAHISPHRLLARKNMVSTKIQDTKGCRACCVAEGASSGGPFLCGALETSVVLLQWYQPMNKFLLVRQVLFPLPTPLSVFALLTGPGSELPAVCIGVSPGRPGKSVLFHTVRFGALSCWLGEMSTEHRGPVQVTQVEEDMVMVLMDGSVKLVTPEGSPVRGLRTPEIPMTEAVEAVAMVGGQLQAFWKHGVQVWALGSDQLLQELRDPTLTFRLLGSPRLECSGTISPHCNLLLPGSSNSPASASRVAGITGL
As to `COC[C@@H]1CN(c2ccc(Nc3ccc(-c4cnc5cc(F)ccn45)c4c3C(=O)NC4)nc2)CCO1` [I-442, (S)-4-(7-fluoroimidazo [1,2-a]pyridin-3-yl)-7-((5-(2-(methoxymeth-yl)morpholino)pyridin-2-yl)amino)isoin-dolin-1-one], the 50% inhibitory concentration (IC50) was < 100 nM.
In the case of `O=C1NCc2c(-c3cnc4cnccn34)ccc(Nc3ccc(N4CCOCC4)cn3)c21` [I-153, 4-imidazo[1,2-a]pyrazin-3-yl-7-[(5-morpholino-2-pyridyl)amino] isoindolin-1-one], the IC50 is < 100 nM.
To `CN(C)Cc1nc(Nc2ccc(-c3cnc4cc(F)ccn34)c3c2C(=O)NC3)ccc1C1(C)CCOC1` (stereo not shown) [I-843, 7-((6-((dimethylamino)-methyl)-5-(3-methylTHF-3-yl)pyridin-2-yl)amino)-4-(7-fluoroimidazo [1,2-a]pyridin-3-yl)isoindolin-1-one] belongs < 100 nM; to `CN(C)[C@H]1COCCN(c2ccc(Nc3ccc(-c4cnc5cc(F)ccn45)c4c3C(=O)NC4)nc2)C1` [I-519, (R)-7-((5-(6-(dimethylami-no)-1,4-oxazepan-4-yl)pyridin-2-yl)amino)-4-(7-fluoroimidazo [1,2-a]pyridin-3-yl)isoindolin-1-one], < 100 nM.
Regarding `O=C1NCc2c(-c3cnc4cc(F)ccn34)ccc(Nc3cccc(N4CCCC4=O)n3)c21` [I-340, 4-(7-fluoroimidazo [1,2-a]pyridin-3-yl)-7-((6-(2-oxopyrrolidin-1-yl)pyridin-2-yl)amino)isoin-dolin-1-one], the IC50 is > 1000 nM.
On to `CN(C)CCNC(=O)C(C)(C)c1ccc(Nc2ccc(-c3cnc4cc(F)ccn34)c3c2C(=O)NC3)nc1` [I-227, N-[2-(dimethylami-no)ethyl]-2-[6-[[7-(7-fluoroimidazo [1,2-a]pyridin-3-yl)-3-oxo-isoindolin-4-yl]amino]-3-pyridyl]-2-methyl-propanamide], for which the IC50 is < 100 nM.
To `O=C1NCc2c(-c3cnc4cc(F)ccn34)ccc(Nc3cnn(C4CCOCC4)c3)c21` [I-379, 4-(7-fluoroimidazo [1,2-a]pyridin-3-yl)-7-((1-(tetrahydro-2H-pyran-4-yl)-1H-pyrazol-4-yl)amino)isoin-dolin-1-one] belongs 100 to 1000 nM; to `CN1CCO[C@]2(CCCN(c3ccc(Nc4ccc(-c5cnc6cc(F)ccn56)c5c4C(=O)NC5)nc3)C2)C1` [I-506a, (R)-4-(7-fluoroimidazo [1,2-a]pyridin-3-yl)-7-((5-(4-methyl-1-oxa-4,8-diazaspiro[5.5]undecan-8-yl)pyridin-2-yl)amino)isoin-dolin-1-one], < 100 nM.
The value for `Cc1cc2[nH]cc(-c3ccc(Nc4ccc(N5CCN(C)CC5)cn4)c4c3CNC4=O)c2cn1` [I-37, 7-[[5-(4-methylpiperazin-1-yl)-2-pyridyl]amino]-4-(6-methyl-1H-pyrrolo[3,2-c]pyridin-3-yl)isoindolin-1-one] was < 100 nM; that for `Cn1ccc2c(-c3ncc(Nc4cncc(N5CC[C@@H]6CNC[C@@H]65)n4)c4c3CNC4=O)ccnc21` (single isomer, unassigned) [I-661] was 100 to 1000 nM; that for `CN[C@H]1CCN(c2cccc(Nc3cnc(-c4ccnc5c4ccn5C)c4c3C(=O)NC4)n2)C1` [I-245, 7-[[6-[(3S)-3-(methylamino)pyrrolidin-1-yl]-2-pyridyl]amino]-4-(1-methylpyrrolo [2,3-b]pyridin-4-yl)-2,3-dihydropyrrolo [3,4-c]pyridin-1-one] was < 100 nM.
The value for `COCC1(c2ccc(Nc3ccc(-c4cnc5cc(F)ccn45)c4c3C(=O)NC4)nc2CN(C)C)CCOC1` (stereo not shown) [I-837, 7-((6-((dimethylamino)methyl)-5-(3-(methoxymethyl)tetrahydrofuran-3-yl)pyridin-2-yl)amino)-4-(7-fluoroimidazo[1,2-a]pyridin-3-yl)isoindolin-1-one] was < 100 nM; that for `CN1CCN(c2ccc(Nc3ccc(-c4cnc5[nH]ccc5c4)c4c3C(=O)NC4)nc2)CC1` [I-45, 7-[[5-(4-methylpiperazin-1-yl)-2-pyridyl]amino]-4-(1H-pyrrolo[2,3-b]pyridin-5-yl)isoindolin-1-one] was < 100 nM; that for `CN(C)Cc1nc(Nc2ccc(-c3cnc4cc(F)ccn34)c3c2C(=O)NC3)ccc1[C@]1(O)CCOC1` [I-803, (R)-7-((6-((dimethylamino)-methyl)-5-(3-hydroxytetra-hydrofuran-3-yl)pyridin-2-yl)amino)-4-(7-fluoroimidazo [1,2-a]pyridin-3-yl)isoindolin-1-one] was < 100 nM.
For the compound `CC(C)(N)[C@@H]1CN(c2ccc(Nc3ccc(-c4cnc5cc(F)ccn45)c4c3C(=O)NC4)nc2)CCO1` (single isomer, unassigned) [I-670], the IC50 is < 100 nM.
In the case of `O=C1NCc2c(-c3cnc4cc(F)ccn34)ccc(Nc3ccc([C@@H]4CCOC4)cn3)c21` [I-222, (S)-4-(7-fluoroimidazo [1,2-a]pyridin-3-yl)-7-((5-(tetrahydro-furan-3-yl)pyridin-2-yl)amino)isoin-dolin-1-one], the IC50 was < 100 nM.
To `CC(C)(O)[C@@H]1CN(c2ccc(Nc3cnc(-c4cnc5ccccn45)c4c3C(=O)NC4)nc2)CCO1` [I-485, 7-[[5-[(2S)-2-(1-hydroxy-1-methyl-ethyl)morpholin-4-yl]-2-pyridyl]amino] 4-imidazo[1,2-a]pyridin-3-yl-2,3-dihydropyrrolo [3,4-c]pyridin-1-one] belongs < 100 nM.
To `C[C@H]1CN(c2ccc(Nc3ccc(-c4cnc5cc(F)ccn45)c4c3C(=O)NC4)nc2CN(C)C)CCO1` [I-529, 7-[[6-[(dimethylamino)-methyl]-5-[(2S)-2-methylmorpho-lin-4-yl]-2-pyridyl]amino]-4-(7-fluoroimidazo [1,2-a]pyridin-3-yl)isoindolin-1-one Bis formic acid salt] belongs < 100 nM; to `Cc1ccc2c(-c3ccc(Nc4ccc(N5CCN(C)CC5)cn4)c4c3CNC4=O)c[nH]c2c1` [I-23, 4-(6-methyl-1H-indol-3-yl)-7-[[5-(4-methylpiperazin-1-yl)-2-pyridyl]amino]isoindolin-1-one], 100 to 1000 nM.
The value for `CN(C)C(C)(C)C1CN(c2ccc(Nc3ccc(-c4cnc5cc(F)ccn45)c4c3C(=O)NC4)nc2)CCO1` (stereo not shown) [I-564, 7-((5-(2-(2-(dimethylami-no)propan-2-yl)morpholino)pyridin-2-yl)amino)-4-(7-fluoroimidazo [1,2-a]pyridin-3-yl)isoindolin-1-one] was < 100 nM.
For `O=C1NCc2c(-c3cncn4ccnc34)ncc(Nc3ccc(N4CCC(O)CC4)cn3)c21` [I-632, 7-((5-(4-hydroxy-piperidin-1-yl)pyridin-2-yl)amino)-4-(imidazo[1,2-c]pyrimidin-8-yl)-2,3-dihydro-1H-pyrrolo[3,4-c]pyridin-1-one], the IC50 was > 1000 nM.
Regarding `CN(Cc1nc(Nc2ccc(-c3cnc4cc(F)ccn34)c3c2C(=O)NC3)ccc1[C@H]1CCOC1)CC(F)F` (single isomer, unassigned) [I-748], the IC50 is < 100 nM.
Consider `Cc1[nH]c2ccccc2c1-c1ncc(Nc2ccc(N3CCN(C)CC3)cn2)c2c1CNC2=O` [I-11, 4-(2-methyl-1H-indol-3-yl)-7-[[5-(4-methylpiperazin-1-yl)-2-pyridyl]amino]-2,3-dihydropyrrolo [3,4-c]pyridin-1-one], for which the IC50 lay within 100 to 1000 nM.
Take `C[C@@H](O)[C@@H]1CCCN(c2ccc(Nc3ccc(-c4cnc5cc(F)ccn45)c4c3C(=O)NC4)nc2)C1` (stereo in doubt) [I-357, 4-(7-fluoroimidazo [1,2-a]pyridin-3-yl)-7-((5-((S)-3-((S)-1-hydroxyethyl)piperidin-1-yl)pyridin-2-yl)amino)isoin-dolin-1-one]: the IC50 was < 100 nM.
`Cn1ccc2c(-c3ncc(Nc4cccc(C5(C)CCNCC5)n4)c4c3CNC4=O)ccnc21` [I-430, 4-(1-methyl-1H-pyrrolo[2,3-b]pyridin-4-yl)-7-((6-(4-methylpiperidin-4-yl)pyridin-2-yl)amino)-2,3-dihydro-1H-pyrrolo[3,4-c]pyridin-1-one]: the IC50 was > 1000 nM.
The value for `C[C@H](c1ccc(Nc2ccc(-c3cnc4cc(F)ccn34)c3c2C(=O)NC3)nc1)N1CCO[C@@H](C)C1` [I-523, 4-(7-fluoroimidazo [1,2-a]pyridin-3-yl)-7-((5-((R)-1-((S)-2-methylmorpho-lino)ethyl)pyr-idin-2-yl)amino) isoin-dolin-1-one] was < 100 nM.
Consider `CN(C)C[C@]1(O)CCCN(c2ccc(Nc3ccc(-c4cnc5cc(F)ccn45)c4c3C(=O)NC4)nc2)C1` [I-567, (R)-7-((5-(3-((dimethylamino)-methyl)-3-hydroxypiperidin-1-yl)pyridin-2-yl)amino)-4-(7-fluoroimidazo [1,2-a]pyridin-3-yl)isoindolin-1-one], for which the IC50 was < 100 nM.
The value for `CN1CC[C@@]12CCN(c1cccc(Nc3cnc(-c4ccnc5c4ccn5C)c4c3C(=O)NC4)n1)C2` [I-616, (S)-7-((6-(1-methyl-1,6-diazaspiro[3,4]octan-6-yl)pyridin-2-yl)amino)-4-(1-methyl-1H-pyrrolo[2,3-b)pyridin-4-yl)-2,3-dihydro-1H-pyrrolo[3,4-c]pyridin-1-one] was < 100 nM; that for `Cn1ccc2c(-c3ncc(Nc4cccc(C5CCNCC5)n4)c4c3CNC4=O)ccnc21` [I-390, 4-(1-methyl-1H-pyrrolo[2,3-b]pyridin-4-yl)-7-((6-(piperidin-4-yl)pyridin-2-yl)amino)-2,3-dihydro-1H-pyrrolo[3,4-c]pyridin-1-one] was 100 to 1000 nM.
On to `Cn1ccc2c(-c3ccc(-n4ccc(N5CCC[C@](C)(O)C5)n4)c4c3CNC4=O)ccnc21` (single isomer, unassigned) [I-306], for which the IC50 was > 1000 nM.
To `O=C1NCc2c(-c3cnc4cc(F)ccn34)ccc(Nc3ccc(C4CCOC4)c(CNCC4CC4)n3)c21` (stereo not shown) [I-849, 7-[[6-[(cyclopropylmethylamino)methyl]-5-tetrahydrofuran-3-yl-2-pyridyl]amino]-4-(7-fluoroimidazo [1,2-a]pyridin-3-yl)isoindolin-1-one Formic acid salt] belongs < 100 nM.
